Among the data in article PMC3746001 (ACS chemical biology, 2013) are IC50 values, retold here.

One experiment deals with HIV-1 RT (Human immunodeficiency virus type 1 group M subtype B, UniProt P04585). The experiment in a line: Fluorescence-based polymerase assay, HIV-1 RT. The experiment is classed as biochemical.
For a further experiment, the target named is T1, hpol ι (Homo sapiens, UniProt Q9UNA4).
T1 sequence (Q9UNA4 26-446): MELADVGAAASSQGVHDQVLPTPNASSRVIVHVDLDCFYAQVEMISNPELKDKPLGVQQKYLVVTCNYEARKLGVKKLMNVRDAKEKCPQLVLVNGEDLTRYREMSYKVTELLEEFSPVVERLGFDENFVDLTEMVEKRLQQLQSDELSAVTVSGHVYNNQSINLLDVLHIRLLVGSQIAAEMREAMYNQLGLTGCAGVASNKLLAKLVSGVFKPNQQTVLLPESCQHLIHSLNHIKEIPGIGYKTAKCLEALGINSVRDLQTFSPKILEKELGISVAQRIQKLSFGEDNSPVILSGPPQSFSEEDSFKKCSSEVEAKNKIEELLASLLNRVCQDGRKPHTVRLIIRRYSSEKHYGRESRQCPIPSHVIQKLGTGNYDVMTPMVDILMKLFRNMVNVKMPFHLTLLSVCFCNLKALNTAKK
The experiment in a line: Fluorescence-based polymerase assay, hpol ι. The experiment is classed as biochemical.

The next experiment has as its target T2, Dpo1 (Saccharolobus solfataricus, UniProt P26811).
T2 sequence (P26811 1-882): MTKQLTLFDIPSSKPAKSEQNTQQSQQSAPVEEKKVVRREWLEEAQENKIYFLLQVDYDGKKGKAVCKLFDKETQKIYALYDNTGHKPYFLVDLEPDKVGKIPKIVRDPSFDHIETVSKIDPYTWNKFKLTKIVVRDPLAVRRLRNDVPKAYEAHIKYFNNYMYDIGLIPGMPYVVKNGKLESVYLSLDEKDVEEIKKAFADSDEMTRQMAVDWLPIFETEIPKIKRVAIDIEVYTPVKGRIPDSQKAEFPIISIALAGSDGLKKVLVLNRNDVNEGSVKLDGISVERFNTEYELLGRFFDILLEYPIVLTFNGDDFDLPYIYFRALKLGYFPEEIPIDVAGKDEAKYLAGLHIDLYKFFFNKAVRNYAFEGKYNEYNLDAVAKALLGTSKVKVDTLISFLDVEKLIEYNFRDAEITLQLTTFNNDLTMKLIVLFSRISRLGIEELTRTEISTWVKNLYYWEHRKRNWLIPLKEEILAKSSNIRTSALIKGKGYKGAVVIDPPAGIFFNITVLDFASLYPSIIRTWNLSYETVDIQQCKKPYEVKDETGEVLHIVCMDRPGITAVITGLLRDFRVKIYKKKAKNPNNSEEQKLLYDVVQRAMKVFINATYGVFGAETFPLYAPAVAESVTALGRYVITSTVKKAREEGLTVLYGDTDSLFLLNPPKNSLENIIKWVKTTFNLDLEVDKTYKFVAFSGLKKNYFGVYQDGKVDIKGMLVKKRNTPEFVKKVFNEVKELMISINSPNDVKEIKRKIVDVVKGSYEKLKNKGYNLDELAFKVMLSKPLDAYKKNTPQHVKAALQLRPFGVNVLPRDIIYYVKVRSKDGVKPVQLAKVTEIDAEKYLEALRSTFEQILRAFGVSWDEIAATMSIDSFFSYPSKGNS
The experiment in a line: Fluorescence-based polymerase assay, Dpo1. The experiment is classed as biochemical, S. solfataricus.

Another experiment addresses T3, hetero-dimeric hpol γ (Homo sapiens, UniProt P54098).
T3 sequence (P54098 1-1239): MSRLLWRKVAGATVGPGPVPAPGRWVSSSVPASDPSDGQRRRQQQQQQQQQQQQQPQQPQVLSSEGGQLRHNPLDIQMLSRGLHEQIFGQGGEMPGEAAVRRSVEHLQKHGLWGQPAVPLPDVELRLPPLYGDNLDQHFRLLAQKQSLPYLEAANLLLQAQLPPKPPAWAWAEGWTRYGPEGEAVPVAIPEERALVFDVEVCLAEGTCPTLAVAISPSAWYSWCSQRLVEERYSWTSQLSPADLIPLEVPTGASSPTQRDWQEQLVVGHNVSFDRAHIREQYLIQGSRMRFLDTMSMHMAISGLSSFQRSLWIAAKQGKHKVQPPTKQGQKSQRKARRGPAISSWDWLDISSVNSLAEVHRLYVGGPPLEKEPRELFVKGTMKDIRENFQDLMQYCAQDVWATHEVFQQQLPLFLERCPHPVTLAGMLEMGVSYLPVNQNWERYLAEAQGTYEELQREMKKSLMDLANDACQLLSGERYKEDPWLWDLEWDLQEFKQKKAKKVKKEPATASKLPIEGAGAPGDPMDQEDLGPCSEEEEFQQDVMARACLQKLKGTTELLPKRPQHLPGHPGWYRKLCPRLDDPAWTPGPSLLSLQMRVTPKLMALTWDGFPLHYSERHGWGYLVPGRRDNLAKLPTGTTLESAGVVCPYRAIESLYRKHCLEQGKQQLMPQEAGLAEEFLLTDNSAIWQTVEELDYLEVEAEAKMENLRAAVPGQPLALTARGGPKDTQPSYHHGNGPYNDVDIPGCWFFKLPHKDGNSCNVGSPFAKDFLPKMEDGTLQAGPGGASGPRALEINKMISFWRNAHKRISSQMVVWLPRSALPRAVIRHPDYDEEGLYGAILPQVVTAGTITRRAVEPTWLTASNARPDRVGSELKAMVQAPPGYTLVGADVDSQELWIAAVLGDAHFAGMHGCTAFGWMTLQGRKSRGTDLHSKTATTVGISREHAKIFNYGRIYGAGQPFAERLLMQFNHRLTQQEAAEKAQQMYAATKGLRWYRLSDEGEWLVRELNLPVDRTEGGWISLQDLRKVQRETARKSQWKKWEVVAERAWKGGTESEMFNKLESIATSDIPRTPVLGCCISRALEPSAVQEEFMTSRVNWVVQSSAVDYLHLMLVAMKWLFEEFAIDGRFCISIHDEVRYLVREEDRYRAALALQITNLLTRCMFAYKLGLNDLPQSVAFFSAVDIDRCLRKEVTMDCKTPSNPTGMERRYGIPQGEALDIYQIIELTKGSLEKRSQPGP
T3 sequence (Q9UHN1 26-485 partner limits assumed): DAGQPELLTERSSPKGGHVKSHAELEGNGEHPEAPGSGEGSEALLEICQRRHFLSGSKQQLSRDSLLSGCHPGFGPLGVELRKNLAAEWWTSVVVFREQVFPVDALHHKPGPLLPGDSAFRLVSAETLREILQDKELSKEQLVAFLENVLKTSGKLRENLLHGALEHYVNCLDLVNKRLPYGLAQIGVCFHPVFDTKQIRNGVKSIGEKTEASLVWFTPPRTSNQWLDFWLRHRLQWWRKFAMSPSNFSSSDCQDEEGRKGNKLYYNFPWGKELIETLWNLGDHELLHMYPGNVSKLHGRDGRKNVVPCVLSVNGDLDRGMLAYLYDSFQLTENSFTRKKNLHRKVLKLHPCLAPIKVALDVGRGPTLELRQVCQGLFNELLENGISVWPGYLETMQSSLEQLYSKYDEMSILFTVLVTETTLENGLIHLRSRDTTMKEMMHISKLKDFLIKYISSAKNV
The experiment in a line: Fluorescence-based polymerase assay, hpol γ. It is filed as biochemical.

As a reminder, the IC50 is the concentration that inhibits the measured activity by half.

For the compound `O=C1NC(=S)NC(=O)C1=Cc1cn(C(=O)c2ccccc2Br)c2ccc(Cl)cc12` [ITBA-12, 5-((1-(2-bromobenzoyl)-5-chloro-1H-indol-3-yl)methylene)-2-thioxodihydropyrimidine-4,6(1H,5H)-dione], the IC50 is about 80 µM at HIV-1 RT, about 80 µM against hpol ι, about 80 µM at Dpo1 and 49 ± 6 µM against hetero-dimeric hpol γ.
